{"source": "patent US6380245B1", "about": "“Antibiotics TKR1912-I and TKR1912-II and process for producing the same” (Takara Shuzo Co., Ltd., priority 1995, dated 2002)", "key": {"[1]": {"tested_on": "Aspergillus fumigatus TIMM1776", "test": "Antifungal spectrum, liquid medium dilution method", "assay_type": "cell-based", "experimental": "(§1) The antifungal spectra of the above TKR1912-I and TKR1912-II against various microorganisms were determined. Using the liquid medium dilution method, the concentration causing a substantially complete inhibition of fungal growth was determined as minimal inhibitory concentration (μg/ml). Moreover, the minimal concentration (μg/ml) causing partial growth inhibition was determined and the results are presented in parentheses in Table 2. In the table, YNBG stands for YNBG medium comprising 0.67% of yeast nitrogen base (Difco) and 1.0% of glucose and BHI stands for BHI medium comprising brain-heart infusion bouillon (Nissui Pharmaceutical)."}, "[2]": {"tested_on": "Candida albicans TIMM0136", "test": "Antifungal spectrum, liquid medium dilution method", "assay_type": "cell-based", "experimental": "as §1"}, "[3]": {"tested_on": "Candida kefyr TIMM0301", "test": "Antifungal spectrum, liquid medium dilution method", "assay_type": "cell-based", "settings": "for MIC: Kluyveromyces marxianus", "experimental": "as §1"}, "[4]": {"tested_on": "Cryptococcus neoformans TIMM0354", "test": "Antifungal spectrum, liquid medium dilution method", "assay_type": "cell-based", "experimental": "as §1"}, "[5]": {"tested_on": "ICR mice", "test": "Toxicity after intraperitoneal administration to ICR mice", "assay_type": "in vivo", "settings": "50 mg/kg"}, "[6]": {"test": "Solubility in solvents", "assay_type": "physicochemical"}, "[7]": {"settings": "Aspergillus fumigatus TIMM1776, BHI medium"}, "[8]": {"settings": "Candida albicans TIMM0136, YNBG medium"}, "[9]": {"settings": "Candida kefyr TIMM0301, YNBG medium"}}, "note": "Read-outs that look alike come from different tables or passages of the source.", "data": [{"smiles": "CCCCCCCC/C=C/CC/C=C/C1CC(C(=O)O)C(CC(=O)O)(C(=O)OC(C(=O)O)C(CC(=O)O)C(=O)O)O1", "note": "(stereo not drawn) [TKR1912-II]", "values": [{"measurement": "minimal concentration causing partial growth inhibition (in parentheses)", "setting": "[1]; [7]", "value": "(25) μg/ml"}, {"measurement": "MIC", "setting": "[1]; Aspergillus fumigatus, TIMM1776, read-out: Minimal inhibitory concentration (substantially complete inhibition of fungal growth)", "value": "> 100", "unit": "µg/mL"}, {"measurement": "minimal concentration causing partial growth inhibition (in parentheses)", "setting": "[2]; [8]", "value": "(0.78) μg/ml"}, {"measurement": "MIC", "setting": "[2]; Candida albicans, TIMM0136, read-out: Minimal inhibitory concentration (substantially complete inhibition of fungal growth)", "value": 3.13, "unit": "µg/mL"}, {"measurement": "minimal concentration causing partial growth inhibition (in parentheses)", "setting": "[3]; [9]", "value": "(1.56) μg/ml"}, {"measurement": "MIC", "setting": "[3]; TIMM0301, read-out: Minimal inhibitory concentration (substantially complete inhibition of fungal growth)", "value": 3.13, "unit": "µg/mL"}, {"measurement": "minimal concentration causing partial growth inhibition (in parentheses)", "setting": "[4]; Cryptococcus neoformans TIMM0354, YNBG medium", "value": "(6.25) μg/ml"}, {"measurement": "MIC", "setting": "[4]; Cryptococcus neoformans, TIMM0354, read-out: Minimal inhibitory concentration (substantially complete inhibition of fungal growth)", "value": "> 100", "unit": "µg/mL"}, {"measurement": "toxic signs", "setting": "[5]", "value": "no toxic signs"}, {"measurement": "solubility in hexane", "setting": "[6]", "value": "practically insoluble"}, {"measurement": "solubility in methanol, chloroform, and water", "setting": "[6]", "value": "soluble"}]}, {"smiles": "CCCCCCCCCC/C=C/C1CC(C(=O)O)C(CC(=O)O)(C(=O)OC(C(=O)O)C(CC(=O)O)C(=O)O)O1", "note": "(stereo not drawn) [TKR1912-I]", "values": [{"measurement": "minimal concentration causing partial growth inhibition (in parentheses)", "setting": "[1]; [7]", "value": "(100) μg/ml"}, {"measurement": "MIC", "setting": "[1]; Aspergillus fumigatus TIMM1776, BHI medium, read-out: Minimal inhibitory concentration (substantially complete inhibition of fungal growth)", "value": "> 100", "unit": "µg/mL"}, {"measurement": "minimal concentration causing partial growth inhibition (in parentheses)", "setting": "[2]; [8]", "value": "(1.56) μg/ml"}, {"measurement": "MIC", "setting": "[2]; Candida albicans TIMM0136, YNBG medium, read-out: Minimal inhibitory concentration (substantially complete inhibition of fungal growth)", "value": 3.13, "unit": "µg/mL"}, {"measurement": "minimal concentration causing partial growth inhibition (in parentheses)", "setting": "[3]; [9]", "value": "(6.25) μg/ml"}, {"measurement": "MIC", "setting": "[3]; Candida kefyr TIMM0301, YNBG medium, read-out: Minimal inhibitory concentration (substantially complete inhibition of fungal growth)", "value": 12.5, "unit": "µg/mL"}, {"measurement": "MIC", "setting": "[4]; Cryptococcus neoformans TIMM0354, YNBG medium, read-out: Minimal inhibitory concentration (substantially complete inhibition of fungal growth)", "value": 6.25, "unit": "µg/mL"}, {"measurement": "toxic signs", "setting": "[5]", "value": "no toxic signs"}, {"measurement": "solubility in hexane", "setting": "[6]", "value": "practically insoluble"}, {"measurement": "solubility in methanol, chloroform, and water", "setting": "[6]", "value": "soluble"}]}]}
